# Laboratory results: article PMC6395679, “Efficient cell penetration and delivery of peptide nucleic acids by an argininocalix[4]arene” (Scientific Reports, 2019)
# Experiments:
# Fl-a221PNA = assay: Fluorescence titration of Fl-a221PNA with calixarene 1; type: binding; conditions: Fl-a221PNA 2 μM, HEPES 16 mM, NaCl 40 mM, pH 7.4, λex = 494 nm, 1 added stepwise up to 9.9 μM
# Description: For a fast evaluation of the interaction with PNA, fluorescently labelled Fl-a221PNA (Fl: Fluorescein) was diluted to a final concentration of 2 μM in buffer (HEPES 16 mM, NaCl 40 mM, pH 7.4) and placed in a fluorescence cuvette; to this, a concentrated solution of the argininocalix[4]arene 1 (100 μM in EtOH/H2O/DMSO = 2/2/1 v/v/v) was added stepwise (up to a final concentration of 9.9 μM of calixarene), and changes in the fluorescein emission intensity (with λex = 494 nm) were measured after each addition. Correction for lamp fluctuation was performed by measuring the fluorescence of a standard 2 μM fluorescein solution after each spectra; this correction and that for dilution were performed using the formula: Fi, corr = Fi,obs × (Fin /Fi) × (Vi /Vin), where Fi: intensity at the ith point and Fin: initial intensity of the fluorescein standard, Vi: total volume at the ith point and Vin: initial volume.
# In order to rule out that the observed delivery was solely due to permeabilization of cells caused by the argininocalixarene, without interaction between the carrier and the PNA, Fl-a221PNA was titrated in vitro in buffer by adding 1 and measuring the changes in fluorescence emission (Fig. 4). […] A slight shift of the fluorescence maximum (from 519 to 523 nm) was also observed, consistent with a more polar microenvironment generated by the cationic calixarene.
# U251 cells [1] = assay: Cell morphology by microscopic inspection; type: cell-based, human; conditions: 72 hours of cell culture, 2.5 µM calixarene 1 or 3μL/mL lipofectamine
# Description: (§1) Cell viability after the transfection with 1 was evaluated with Muse Count & Viability Kit (Millipore, Billerica, Massachusetts, USA), using Muse Cell Analyser (Millipore, Billerica, Massachusetts, USA). To perform analysis, 50 µL of suspension cells were added to 225 µL of Muse Count & Viability Reagent, the solution was incubated at room temperature for 5 minutes, protected from the light and then 1 × 10^3 events were analysed using Muse Cell Analyser (Millipore, Billerica, Massachusetts, USA). The effects on cell growth were studied by determining the cell number/ml using a Z2 Coulter Counter (Coulter Electronics, Hialeah, FL, USA). The effects of calixarene 1 on cell viability, cell growth and cell morphology were compared to those of Lipofectamine RNAiMAX (Invitrogen, Monza, Italy).
# (§2) Comparison was done with the effects of lipofectamine analyzed after 72 hours of cell culture. […] These findings are in agreement with the cell morphology profile shown in Fig. 2(D–F) and determined by microscopic inspection after 72 hours of cell culture in the presence of 2.5 µM calixarene 1 (Fig. 2E), 3μL/mL lipofectamine (Fig. 2F) or in the absence of both the delivery systems (Fig. 2D).
# U251 cells [2] = assay: Effects on cell growth (cell number/ml, Z2 Coulter Counter); type: cell-based, human; conditions: after 72 hours of cell culture, effect of 1 significant only at 10 µM, lipofectamine within 0.5–12 μl/ml
# Description: as §1, §2
# miR-221-3p = assay: RT-qPCR hybridization to miR-221-3p probe; type: cell-based, human; conditions: U251 cells, 48 hours, calixarene 1 at 2.5 μM, PNAs at 2 μM
# Description: The human glioma U251 cells[50] were cultured in humidified atmosphere of 5% CO2/air in RPMI-1640 medium (Gibco, Life Technologies, Monza, Italy) supplemented with 10% (v/v) fetal bovine serum (FBS, Biowest, Nuaillé, France), 100 units/mL penicillin and 100 µg/mL streptomycin (Pen-Strep, Sigma-Aldrich, Saint Louis, Missouri, USA). All PNA transfection procedures were performed under the conditions described here below. Briefly, a mixture constituted by RPMI-1640 medium containing calixarene 1 at 2.5 µM final concentration, and 2 µM PNA was prepared and incubated for 20 minutes at room temperature, without serum. After the incubation, 10% (v/v) of FBS was added. […]
# For miRNAs quantification, obtained RNA was reverse transcribed using TaqMan MicroRNA Reverse Transcription Kit (Applied Biosystems, Foster City, CA, USA) and miRNA specific stem-loop primer (hsa-miR-96-5p, ID: 000186; hsa-miR-155-5p, ID: 002623; hsa-miR-210-3p, ID: 000512; hsa-miR-221-3p, ID: 000524). Reverse transcription quantitative polymerase-chain reaction (RT-qPCR) was performed according to the manufacturer’s protocols and as indicated elsewhere. […] The relative expression was calculated using the comparative cycle threshold method (ΔΔCT) and U6 snRNA (hsa U6 snRNA, ID:001973) and hsa-let-7c (hsa-let-7c, ID:000379) as endogenous controls. […]
# U251 cells [3] = assay: Cell viability assay (Muse Count & Viability Kit); type: cell-based, human; conditions: in contact for all the treatment time
# Description: The human glioma U251 cells[50] were cultured in humidified atmosphere of 5% CO2/air in RPMI-1640 medium (Gibco, Life Technologies, Monza, Italy) supplemented with 10% (v/v) fetal bovine serum (FBS, Biowest, Nuaillé, France), 100 units/mL penicillin and 100 µg/mL streptomycin (Pen-Strep, Sigma-Aldrich, Saint Louis, Missouri, USA). All PNA transfection procedures were performed under the conditions described here below. Briefly, a mixture constituted by RPMI-1640 medium containing calixarene 1 at 2.5 µM final concentration, and 2 µM PNA was prepared and incubated for 20 minutes at room temperature, without serum. After the incubation, 10% (v/v) of FBS was added. Cell culture medium was removed and replaced with the transfection mixture, which was maintained in contact with cells until the end of the treatment.
# as §1
# One of the major issues associated with the use of commercial available vehicles is the high toxicity of these compounds. For such reason 1 was first evaluated for its effect on cell viability when used to transfect molecules. […] Viability profile was determined at three different time points, 24, 48 and 72 hours after transfection, with three different concentrations of […], 1.25, 2.5, and 10 μM. […]
substance,measurement,setting,value
tetraargininocalix[4]arene [compound 1],concentration of carrier at saturation of fluorescence quenching,Fl-a221PNA,2.5 µM
same,effect on cell morphology,U251 cells [1],does not affect cell morphology
same,effect on cell proliferation (cell growth),U251 cells [2],minor
same,effect on miR-221-3p hybridization signal,miR-221-3p,no effects
same,percentage of total live cells,"U251 cells [3]; 1.25 µM of 1, 24 hours after the transfection",no differences
same,percentage of total live cells,"U251 cells [3]; 2.5 µM of 1, 24 hours after the transfection",no differences
same,live cells percentage,"U251 cells [3]; 10 µM of 1, 24 hours after the transfection",slight decrease
